This experiment concerns the target T1, MyD88^TIR (Homo sapiens, UniProt Q99836).
T1 construct: MyD88 (residues 148–296); 6xHis; made in house; host or cells: E. coli BL21 (DE3)
The experiment is described as follows: T‐Surf phage library (P8 and P3) selection against MyD88^TIR, four rounds, NGS read counts. The format is binding. The following applies: for Population: 4th round of selection against MyD88 TIR, share of NGS reads; for P3_MyD88 Rank (after) / P3_MyD88 Rank (before): P3 library. Summed up: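 Read counts come from NGS of phage pools enriched over four selection rounds on the plate‐coated TIR domain (5 µg mL^−1). Each round: 1 h phage binding at room temperature after 0.2% BSA blocking, Tween washes, acid elution, amplification in E. coli TG1 with M13KO7 helper.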

Setting [1] is: P3_MyD88: rank by count after grouping.
Where [2] appears, read: P3_MyD88: rank by count before grouping.
Where [3] appears, read: P8_MyD88: rank by count after grouping.
Where [4] appears, read: P8_MyD88: rank by count before grouping.
The mark [5] stands for this setting: P8_MyD88 pool: P8 T-Surf phage library.
Where [6] appears, read: selection against MyD88, rank after grouping.
The mark [7] stands for this setting: selection against MyD88, rank before grouping.
Setting [8] is: 4R selection against MyD88, rank after grouping.
Setting [9] is: 4R selection against MyD88, rank before grouping.
The mark [10] stands for this setting: selection against MyD88 TIR, rank by count after grouping.
Setting [11] is: selection against MyD88 TIR, rank by count before grouping.
Setting [12] is: selection against MyD88, rank by count after grouping.
[13] abbreviates: selection against MyD88, rank by count before grouping.

T1 sequence (Q99836 148-296): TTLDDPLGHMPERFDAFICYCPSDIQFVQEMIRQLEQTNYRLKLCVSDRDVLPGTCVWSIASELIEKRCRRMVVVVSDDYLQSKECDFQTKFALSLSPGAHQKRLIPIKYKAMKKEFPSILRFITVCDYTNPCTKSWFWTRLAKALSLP

Take SDLRVVEDGSVSPLEM: the “Rank (after)” value under setting [1] came out at 104. Moreover, the “Rank (before)” value under setting [2] was 1178.
Take SDVDHLTYLVRVRLCR: the “P8_MyD88 Rank (after)” value (P8 library, selection against MyD88, rank by count after grouping) is listed as 728. Further, the “P8_MyD88 Rank (before)” value (P8 library, selection against MyD88, rank by count before grouping) worked out at 3748.
SEDTRNNFLYHLYEAL: under setting [3], the “Rank (after)” value was 100. Further, under setting [4], the “Rank (before)” value came to 106. Under setting [5], this sequence came in with a Population of 0.022%.
With SEIYATSPWALDVLVL, the “P3_MyD88 Rank (after)” value under setting [6] was 508. The “P3_MyD88 Rank (before)” value under setting [7] was 2953.
In the case of SEKYAKSPWAKVGLVL, the “P3_MyD88 Rank (after)” value under setting [6] is listed as 548. The “P3_MyD88 Rank (before)” value under setting [7] was found to be 3001.
For SELCVVAEGSVSPLDM, under setting [8], the “P3_MyD88 Rank (after)” value was 587. Further, under setting [9], the “P3_MyD88 Rank (before)” value is listed as 3010.
Take SELREVADGSVSPLEM: the “P3_MyD88 Rank (after)” value under setting [10] is on record as 192. Under setting [11], the “P3_MyD88 Rank (before)” value was 3063.
For SELREVVGGAVSQLVM, under setting [6], the “P3_MyD88 Rank (after)” value stood at 575. Further, the “P3_MyD88 Rank (before)” value under setting [7] is recorded as 3061.
For the sequence SELRVEDDGSVIPLEM, the “P3_MyD88 Rank (after)” value under setting [10] amounted to 201. Further, the “P3_MyD88 Rank (before)” value under setting [11] came out at 3055.
As to SELRVVDDGRVSPMAM, the “Rank (after)” value under setting [1] is listed as 464. The “Rank (before)” value under setting [2] is recorded as 3019.
As to SELRVVDDGSVSPLK, the “P3_MyD88 Rank (after)” value under setting [10] was found to be 210. In addition, under setting [11], the “P3_MyD88 Rank (before)” value turned out to be 3038.
On to SELRVVDDGSVSPLVT, for which the “Rank (after)” value under setting [1] worked out at 182. Besides, the “Rank (before)” value under setting [2] is listed as 3029.
Regarding SELRVVDDGSVSPPNL, the “P3_MyD88 Rank (after)” value under setting [6] is recorded as 570. Under setting [7], the “P3_MyD88 Rank (before)” value is 3040.
In the case of SELRVVDDGSVSPRET, the “P3_MyD88 Rank (after)” value under setting [12] was found to be 741. In addition, the “P3_MyD88 Rank (before)” value under setting [13] was 3045.
As to SELRVVDKETDKIQTPLKNA, the “Rank (after)” value under setting [1] is listed as 412. In addition, the “Rank (before)” value under setting [2] is reported as 3051.
For the sequence SELSVVDDGSVSPLGM, the “Rank (after)” value under setting [1] is 472. Moreover, under setting [2], the “Rank (before)” value was found to be 3068.
For SEMRVVEDGSVSPLEM, the “P3_MyD88 Rank (after)” value under setting [6] came out at 495. Besides, under setting [7], the “P3_MyD88 Rank (before)” value was 3071.
Regarding SENMRPARGRWMNWC, the “P3_MyD88 Rank (after)” value under setting [8] was 654. Under setting [9], the “P3_MyD88 Rank (before)” value is recorded as 3000.
As to SENYASSSWALTELVH, the “P3_MyD88 Rank (after)” value under setting [12] is on record as 723. Moreover, the “P3_MyD88 Rank (before)” value under setting [13] came to 2958.
SENYATRPWAPDELVL: the “P3_MyD88 Rank (after)” value under setting [8] worked out at 673. Also, the “P3_MyD88 Rank (before)” value under setting [9] stood at 2999.
With SENYATSAWALEELVL, under setting [10], the “P3_MyD88 Rank (after)” value was 214. The “P3_MyD88 Rank (before)” value under setting [11] is 2961.
In the case of SENYATSPWALDELLIAIEE, the “P3_MyD88 Rank (after)” value under setting [6] is recorded as 519. Further, under setting [7], the “P3_MyD88 Rank (before)” value was 2979.
Sequence SENYATSPWALDELVP had a Population (P3_MyD88 pool: P3 T-Surf phage library) of 0.00437%.
In the case of SENYATSPWALDELVRIVEA, under setting [10], the “P3_MyD88 Rank (after)” value is 258. Besides, the “P3_MyD88 Rank (before)” value under setting [11] was determined as 1170.
As for SENYATSPWALEKAGKL, the “Rank (after)” value under setting [1] is 423. The “Rank (before)” value under setting [2] turned out to be 2984.
In the same order, the values of SENYATSPWALKERLP are 133 and 734.
Take SENYATSPWALMNWC: the “P3_MyD88 Rank (after)” value under setting [8] worked out at 655. The “P3_MyD88 Rank (before)” value under setting [9] is 2985.
Regarding SENYATSPWALTELVH, the “P3_MyD88 Rank (after)” value under setting [10] was determined as 278. The “P3_MyD88 Rank (before)” value under setting [11] is 2986.
Turning to SENYATSPWAPELLR, the “P3_MyD88 Rank (after)” value under setting [8] amounted to 658. The “P3_MyD88 Rank (before)” value under setting [9] came to 2990.
In the case of SENYATSPWRWMNWC, under setting [6], the “P3_MyD88 Rank (after)” value turned out to be 541. In addition, under setting [7], the “P3_MyD88 Rank (before)” value is 2992.
In the same order, the values of SENYATSTWAPDELVR are 496 and 2998.
Turning to SENYVTSPCAVDELVP, under setting [12], the “P3_MyD88 Rank (after)” value was determined as 712. For the same sequence, the “P3_MyD88 Rank (before)” value under setting [13] was 2957.
For SFSFPLDQLSYFLNLP, the “Rank (after)” value under setting [3] is on record as 136. Under setting [4], the “Rank (before)” value is on record as 147. For the same sequence, the Population under setting [5] was 0.0112%.
With SFTDHLYAALVQAGIL, the “Rank (after)” value under setting [3] is given as 126. In addition, the “Rank (before)” value under setting [4] is listed as 137. Also, the Population under setting [5] turned out to be 0.0123%.

The record behind these values is PMC11714206, “Massively Parallel Screening of Toll/Interleukin‐1 Receptor (TIR)‐Derived Peptides Reveals Multiple Toll‐Like Receptors (TLRs)‐Targeting Immunomodulatory Peptides” (Advanced Science, 2024).
